Patent US9561231B2 (AbbVie Inc., priority 2012, dated 2017)

Experiments:
[1] = biological target: T1, first (BD1: amino acids K57-E168) bromodomain of BRD4 (Homo sapiens, UniProt O60885); experiment: TR-FRET bromodomain binding assay, BRD4 BD1; details: TR-FRET assay protocol (A-G, compound concentration range); Ki calculated from IC50, probe Kd and probe concentration; read-out: TR-FRET Binding Ki: BRD4 (BDI_K57-E168)
T1 construct: His-tagged first (BD1: amino acids K57-E168)
Procedure, shortened: (§1)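 Compounds were serially diluted in DMSO, diluted into pH 6.0 phosphate buffer with NaCl, EDTA, Triton X-100 and DTT, then combined with His-tagged bromodomain and an Alexa647-labeled BET-inhibitor probe. TR-FRET was read, percent inhibition fitted to give IC50, and Ki derived using probe Kd.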

[2] = biological target: T2, second (BD2: amino acids E352-E168) bromodomain of BRD4 (Homo sapiens, UniProt O60885); experiment: TR-FRET bromodomain binding assay, BRD4 BD2; details: TR-FRET assay protocol (A-G, compound concentration range); Ki calculated from IC50, probe Kd and probe concentration; read-out: TR-FRET Binding Ki: BRD4 (BDII_E352-M457)
T2 construct: protocol
Procedure, shortened: as §1

[3] = test system: breast cancer cell line MX-1; experiment: MX-1 cell line proliferation assay (3-day); assay type: cell-based; details: Homo sapiens, MX1; MX-1 cells, 72 h incubation, Cell Titer Glo; read-out: Cellular proliferation: EC50
Procedure, shortened: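 EC50 derived by sigmoidal fitting of Cell Titer Glo signal relative to DMSO controls. Compound, 3 μM down to 0.0001 μM final in 3-fold steps, was added to adhered MX-1 cells (5000/well, RPMI + 10% FBS) for a 3-day incubation at 37° C.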

Row | Ki [1] [nM] | Ki [2] [nM] | EC50 [3] [nM] | Structure (SMILES)
1 | 462 | 307 | 1130 | CC(C)C(O)c1ccc(-c2cc(=O)n(C)nc2-c2ccccc2Oc2ccccc2)cc1 (stereo not drawn) [Example 73, 5-[4-(1-hydroxy-2-methylpropyl)phenyl]-2-methyl-6-(2-phenoxyphenyl)pyridazin-3(2H)-one]
2 | 264 | 195 | 1390 | CCC(O)c1ccc(-c2cc(=O)n(C)nc2-c2ccccc2Oc2ccccc2)cc1 (stereo not drawn) [Example 75, 5-[4-(1-hydroxypropyl)phenyl]-2-methyl-6-(2-phenoxyphenyl)pyridazin-3(2H)-one]
3 | 435 | 211 | > 3000 | COCc1ccc(-c2cc(=O)n(C)nc2-c2ccccc2Oc2ccccc2)cc1 [Example 78, 5-[4-(methoxymethyl)phenyl]-2-methyl-6-(2-phenoxyphenyl)pyridazin-3(2H)-one]
4 | 126 | 87.5 | 1870 | Cn1nc(-c2ccccc2Oc2ccccc2)c(-c2ccc(CO)cc2)cc1=O [Example 79, 5-[4-(hydroxymethyl)phenyl]-2-methyl-6-(2-phenoxyphenyl)pyridazin-3(2H)-one]
5 | 1120 | 733 | > 3000 | Cn1nc(-c2ccccc2Oc2ccccc2)c(C2=CCN(C(=O)OC(C)(C)C)CC2)cc1=O [Example 81, tert-butyl 4-[1-methyl-6-oxo-3-(2-phenoxyphenyl)-1,6-dihydropyridazin-4-yl]-3,6-dihydropyridine-1(2H)-carboxylate]
6 | 770 | 455 | 1130 | COC(=O)CCc1ccc(-c2cc(=O)n(C)nc2-c2ccccc2Oc2ccccc2)cc1 [Example 92, methyl 3-{4-[1-methyl-6-oxo-3-(2-phenoxyphenyl)-1,6-dihydropyridazin-4-yl]phenyl}propanoate]
7 | 172 | 145 | > 3000 | Cn1nc(-c2ccccc2Oc2ccccc2)c(-c2ccc(C3=NCCCO3)cc2)cc1=O [Example 95, 5-[4-(5,6-dihydro-4H-1,3-oxazin-2-yl)phenyl]-2-methyl-6-(2-phenoxyphenyl)pyridazin-3(2H)-one]
8 | 216 | 71.2 | 639 | Cn1nc(-c2ccccc2Oc2ccccc2)c(-c2ccc(CNS(C)(=O)=O)cc2)cc1=O [Example 98, N-{4-[1-methyl-6-oxo-3-(2-phenoxyphenyl)-1,6-dihydropyridazin-4-yl]benzyl}methanesulfonamide]
9 | 142 | 58.7 | 558 | CC(=O)NCc1ccc(-c2cc(=O)n(C)nc2-c2ccccc2Oc2ccccc2)cc1 [Example 99, N-{4-[1-methyl-6-oxo-3-(2-phenoxyphenyl)-1,6-dihydropyridazin-4-yl]benzyl}acetamide]
10 | 143 | 72.2 | > 3000 | CC(=O)NCCc1ccc(-c2cc(=O)n(C)nc2-c2ccccc2Oc2ccccc2)cc1 [Example 100, N-(2-{4-[1-methyl-6-oxo-3-(2-phenoxyphenyl)-1,6-dihydropyridazin-4-yl]phenyl}ethyl)acetamide]
11 | 233 | 147 | 1130 | Cn1nc(-c2ccccc2Oc2ccccc2)c(-c2ccc(CCCO)cc2)cc1=O [Example 101, 5-[4-(3-hydroxypropyl)phenyl]-2-methyl-6-(2-phenoxyphenyl)pyridazin-3(2H)-one]
12 | 253 | 109 | > 3000 | Cn1cc(-c2cc(=O)n(C)nc2-c2ccccc2Oc2ccccc2)cn1 [Example 103, 2-methyl-5-(1-methyl-1H-pyrazol-4-yl)-6-(2-phenoxyphenyl)pyridazin-3(2H)-one]
13 | 516 | 84.7 | > 3000 | CC(=O)Nc1ccc(-c2cc(=O)n(C)nc2-c2ccccc2Oc2ccccc2)cc1 [Example 105, N-{4-[1-methyl-6-oxo-3-(2-phenoxyphenyl)-1,6-dihydropyridazin-4-yl]phenyl}acetamide]
